Details: biotinylated peptide binding to gray human hair bundle; streptavidin-HRP/TMB, A450; calculated from Scatchard plots
Experimental: Then, the streptavidin-horseradish peroxidase (HRP) conjugate (Pierce Chemical Co., Rockford, Ill.) was added to each well (1.0 μg per well), and incubated for 1 h at room temperature, followed by 6 times of washes with TBST. […] The results were plotted as A450 versus the concentration of peptide using GraphPad Prism 4.0 (GraphPad Software, Inc., San Diego, Calif.).

Substance “PLWRRITKRKLVRPVATLMWYWFTSKR-K(biotin)-NH2 [CXH-G2]” has an MB50 of 72 nM.

Reference: patent publication US20100158846A1, “HAIR-BINDING PEPTIDES” (E. I. DU PONT DE NEMOURS AND COMPANY, priority 2008, published 2010)
